Entries after “also recorded” stand apart in the source; their conditions may differ.
Target: T1, NMD3 (Homo sapiens, UniProt Q96D46)
T1 construct: endogenous in cells
T1 sequence (Q96D46 1-503): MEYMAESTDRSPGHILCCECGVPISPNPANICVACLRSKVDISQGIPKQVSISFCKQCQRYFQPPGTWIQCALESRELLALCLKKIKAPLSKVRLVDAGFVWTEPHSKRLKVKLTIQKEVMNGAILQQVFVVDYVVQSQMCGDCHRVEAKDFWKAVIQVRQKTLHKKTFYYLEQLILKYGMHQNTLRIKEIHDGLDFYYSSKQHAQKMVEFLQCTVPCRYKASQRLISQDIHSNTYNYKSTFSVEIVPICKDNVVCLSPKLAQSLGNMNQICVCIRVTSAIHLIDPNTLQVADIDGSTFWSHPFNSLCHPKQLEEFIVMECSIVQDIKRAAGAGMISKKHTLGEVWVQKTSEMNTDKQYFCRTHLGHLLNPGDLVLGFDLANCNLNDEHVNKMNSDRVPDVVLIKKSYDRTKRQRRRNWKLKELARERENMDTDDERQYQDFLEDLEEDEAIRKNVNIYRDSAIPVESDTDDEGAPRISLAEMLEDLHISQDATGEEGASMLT
Test: Chemo-precipitation / photoaffinity labeling of NMD3
Type: binding
Conditions: for competition of PA-DA labeling of endogenous NMD3 / labeling of endogenous NMD3 by probe: Jurkat and HCC1806 cells; for competition of PA-DA labeling of endogenous NMD3: PA-DA 0.5 uM, competitor 5 uM; for labeling of endogenous NMD3 by probe: probe 0.5 uM, UV irradiated
Procedure: FIG. 4. Validation of NMD3 as target of Portimine A by Chemo-precipitation (ChP). Portimine A mouse pharmacokinetic properties and fast acting in vitro cell-based target engagement properties based on compound wash-out. (A) Pharmacokinetic studies of mouse intraperitoneal (i.p.) and oral (p.o.) administration for portimine (n=3). […] Impact of PA [0.3 or 1 mg/kg intraperitoneally] on MC38 tumor growth in WT mice (n=6). (C) Kaplan-Myer survival curve of WT MC38 tumor-bearing mice (n=6) after treatment with PA as described in (D). Mice were euthanized when tumor area exceeded 2000 mm^3. Statistical analysis was performed using ANOVA analysis followed by multiple comparisons test, * p≤0.05. Treatment condition: Jurkat (60 M per condition); PA-DA/ePA-DA concentration: 0.5 uM, PA or ePA: 5 uM; Incubate with probe with or without competitors (PA, ePA) for 30 min; UV irradiated for 20 min. (0.5 uM PA-DA add a no-UV condition); Standard pulldown & biotin-enrichment and western blot analysis (Elute condition: 2× sample buffer+500 uM biotin, boil for 20 mins); Primary antibody NMD3 (ProteinTech, 1:150), Actin (BioRad, 1:10000).
FIG. 5. […] (I, J) Confirmation of PA-DA engagement of NMD3 in Jurkat and HCC1806 cells. […] Treatment condition: Jurkat (5M per well). Portimine A concentration: 2 nM-1000 nM; In total treat cell for 12 hours.
• 1) Portimine A and its functional analogs show stereo-selective acute toxicity in cancer cells (FIG. 1). […] (B) Structure of portimine related analogs: phenyl-portimine A (Ph-PA, 36) and epi-portimine A (ePA, 38). Structure of fully functionalized portimine A-based epimeric probe pair: portimine A-diazirine-alkyne (PA-DA, 35-2) and epi-portimine A-diazirine-alkyne (ePA-DA, 35-1). (C) Cell viability analysis of portimine A and analogs. Jurkat cells were treated with increasing concentrations of portimine A and analogs for 24 hours. All presented data as mean of biological replicated experiments (n=3). […] Jurkat cells were treated with portimine A or analogs for 12 hours at 10 nM. […] Structurally related negative control ePA and PB are non-toxic in all cell types in the current concentrate range. PBMCs (25k per well), Jurkat (10k per well). […] Cell cycle analysis in Jurkat cells (FIG. 2). Jurkat cells were treated with 10 nM of indicated compounds for 24 hours, and propodium iodide was used to identify different stages of cells by flow cytometry. […] (A) PA and Ph-PA show less toxic to healthy PBMCs compared to Jurkat cells. […] (B) Immunoblot of caspase-3 in Jurkat and PBMCs with indicated conditions. […] (A) Pharmacokinetic studies of mouse intraperitoneal (i.p.) and oral (p.o.) administration for portimine (n=3). […] Impact of PA [0.3 or 1 mg/kg intraperitoneally] on MC38 tumor growth in WT mice (n=6). (C) Kaplan-Myer survival curve of WT MC38 tumor-bearing mice (n=6) after treatment with PA as described in (D). Mice were euthanized when tumor area exceeded 2000 mm^3. Statistical analysis was performed using ANOVA analysis followed by multiple comparisons test, * p≤0.05. Treatment condition: Jurkat (60 M per condition); PA-DA/ePA-DA concentration: 0.5 uM, PA or ePA: 5 uM; Incubate with probe with or without competitors (PA, ePA) for 30 min; UV irradiated for 20 min. (0.5 uM PA-DA add a no-UV condition), Standard pulldown & biotin-enrichment and western blot analysis (Elute condition: 2× sample buffer+500 uM biotin, boil for 20 mins); Primary antibody NMD3 (ProteinTech, 1:150), Actin (BioRad, 1:10000). […] Chemical proteomic profiling with PA-DA in Jurkat cells (A, B, C, G) and HCC1806 cells (D, E, F, H) show NMD3 is the primary target candidate of portimine A. Volcano plot in panels A and D show protein competition in cells treated with active photoaffinity probe PA-DA (500 nM) and DMSO or the active competitor portimine A (PA, […]), dotted lines indicate threshold of fold change <4, p-value>0.05. […] (I, J) Confirmation of PA-DA engagement of NMD3 in Jurkat and HCC1806 cells. […] Treatment condition: Jurkat (5M per well). […]

C=CC1=C[C@@H]2[C@@H]3O[C@]4(CC[C@H](O4)C(C)C[C@@H](O)C3=O)CC(O)C3=NCC[C@@]32CC1 (stereo partly shown) [PA, portimine A]
competition of PA-DA labeling of endogenous NMD3: blocked
binding to NMD3 (target validation) (endogenous NMD3, Jurkat, pulldown and western blot): selectively binds; also recorded: confirmed as a target
nature of the interaction with NMD3 (no-UV control): non-covalent

C#CCCC1(CCNC(=O)c2ccc(C3=C[C@@H]4[C@@H]5O[C@]6(CC[C@H](O6)C(C)C[C@@H](O)C5=O)CC(O)C5=NCC[C@@]54CC3)cc2)N=N1 (stereo partly shown) [PA-DA, portimine A-diazirine-alkyne]
binding to recombinantly overexpressed NMD3 in cells: not observed
labeling of endogenous NMD3 by probe: UV-dependent labeling

C=CC1=C[C@@H]2[C@@H]3O[C@]4(CC[C@H](O4)C(C)C[C@@H](O)C3=O)C[C@@H](O)C3=NCC[C@@]32CC1 (stereo partly drawn) [ePA, epi-portimine A]
competition of PA-DA labeling of endogenous NMD3: not

C#CCCC1(CCNC(=O)c2ccc(C3=C[C@@H]4[C@@H]5O[C@]6(CC[C@H](O6)C(C)C[C@@H](O)C5=O)C[C@@H](O)C5=NCC[C@@]54CC3)cc2)N=N1 (stereo partly drawn) [ePA-DA, epi-portimine A-diazirine-alkyne]
labeling of endogenous NMD3 by probe: not substantially labeled

Reference: US20260242390A1, “TOTAL SYNTHESES OF PORTIMINE A AND ANALOGUES THEREOF AS SMALL MOLECULE MODULATORS OF NMD3” (priority 2023, published 2026)
